Reference: patent US20250340863A1, “POLYPEPTIDE-ENCODED LIBRARY AND SCREENING METHOD USING SAME” (WHOLESOME FUTURE LIMITED, priority 2022, published 2025)

Target: T1, HDAC6 (Homo sapiens, UniProt Q9UBN7)
T1 construct: made in house; host or cells: E. coli BL21 (DE3), pET-28a plasmid
T1 sequence (Q9UBN7 1-1215): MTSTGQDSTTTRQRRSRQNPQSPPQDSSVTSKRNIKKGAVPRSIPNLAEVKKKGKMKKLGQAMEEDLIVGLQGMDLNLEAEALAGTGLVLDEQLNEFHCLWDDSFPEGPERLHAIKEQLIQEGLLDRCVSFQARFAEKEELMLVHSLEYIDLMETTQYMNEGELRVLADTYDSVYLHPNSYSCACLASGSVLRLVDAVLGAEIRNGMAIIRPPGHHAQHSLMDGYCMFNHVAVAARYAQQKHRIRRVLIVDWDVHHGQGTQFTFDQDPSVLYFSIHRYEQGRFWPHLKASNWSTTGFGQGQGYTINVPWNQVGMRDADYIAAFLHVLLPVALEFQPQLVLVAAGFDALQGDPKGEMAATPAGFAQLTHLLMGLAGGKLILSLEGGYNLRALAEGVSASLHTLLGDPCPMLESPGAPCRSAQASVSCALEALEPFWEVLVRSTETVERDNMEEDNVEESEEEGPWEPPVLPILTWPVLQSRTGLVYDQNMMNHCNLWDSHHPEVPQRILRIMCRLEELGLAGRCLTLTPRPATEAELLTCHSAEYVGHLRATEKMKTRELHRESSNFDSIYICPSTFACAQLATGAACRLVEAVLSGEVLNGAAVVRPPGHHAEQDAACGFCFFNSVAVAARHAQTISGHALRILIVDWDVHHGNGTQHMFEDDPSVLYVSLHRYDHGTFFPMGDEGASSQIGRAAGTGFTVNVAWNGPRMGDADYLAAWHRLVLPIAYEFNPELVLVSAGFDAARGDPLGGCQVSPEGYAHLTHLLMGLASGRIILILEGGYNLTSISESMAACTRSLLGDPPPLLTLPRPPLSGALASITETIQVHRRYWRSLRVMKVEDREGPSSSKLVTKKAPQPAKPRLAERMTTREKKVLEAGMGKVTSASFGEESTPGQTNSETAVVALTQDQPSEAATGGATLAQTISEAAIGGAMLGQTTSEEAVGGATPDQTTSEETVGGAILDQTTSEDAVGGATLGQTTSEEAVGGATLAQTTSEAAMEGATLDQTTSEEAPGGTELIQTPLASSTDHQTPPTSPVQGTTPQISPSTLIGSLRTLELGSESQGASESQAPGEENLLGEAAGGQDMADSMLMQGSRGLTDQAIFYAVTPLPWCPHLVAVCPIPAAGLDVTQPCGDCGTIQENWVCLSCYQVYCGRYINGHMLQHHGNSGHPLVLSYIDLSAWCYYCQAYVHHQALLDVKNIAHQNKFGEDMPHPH
Assay: HDAC6 enzyme inhibition, fluorescence assay
Assay type: biochemical
Settings: for IC50: 7 concentrations, 4-fold dilution from 250 nM, 4 hours substrate incubation at room temperature; for Hill Slope: Hill slope of fitted dose-effect curve (GraphPad Prism); for Emax: top of fitted dose-effect curve of inhibition rate (GraphPad Prism)
Description: The compounds to be tested were balanced to room temperature, and the compounds were diluted 4 times with DMSO in a 384-well plate, with a starting working concentration of 250 nM and a total of 7 concentration gradients. 250 nl of the diluted drug solution was transferred to the 384-well reaction plate using Echo 550, where 250 nl of DMSO was transferred to the control wells Max and Min wells: the HDAC6 enzyme stock solution was diluted to 1.67× with 1× enzyme reaction system buffer solution; the reaction substrate was diluted to 2.5× with 1× enzyme reaction system buffer solution: 15 μl of the above diluted enzyme working solution was added to each reaction well, and 15 μl of 1× enzyme reaction system buffer solution was added to the Min well. Incubate at room temperature for 15 min; add 10 μl of the above-diluted enzyme reaction substrate to each reaction well and incubate at room temperature for 4 hours to allow the reaction to proceed fully; add 3.5×Trypsin reaction stop solution to each reaction well and incubate at 37° C. for 90 min to terminate the reaction; read the fluorescence signal at the end of the reaction on the microplate reader.
The calculation formula for the inhibition rate of the compound on HDAC6 is as follows:
Where […] is the mean of the detection values of the sample wells of each Max well (only DMSO and enzyme); […] represents the average value of the detection values of each Min well (without enzyme); Sample Signal is the mean of the detection values of each compound-treated well. The dose-effect curve was fitted using GraphPad Prism software, and the IC50 of the compound on enzyme inhibition was calculated (as shown in Table 5).

Row | Compound | IC50 | Hill Slope | Emax
1 | O=C(OCC1CCCCC1)c1ccc(COC(=O)C2COC(O)CN2C(=O)C(=O)c2cc3ccccc3[nH]2)nc1 (stereo not drawn) [Compound 1] | 0.63 nM | 1.2 | 96%
2 | O=C(OCc1ccccn1)C1CCC(COC(=O)C2C[Se]C(O)CN2S(=O)(=O)c2ccccc2)CC1 (stereo not drawn) [Compound 2] | 0.85 nM | 1.1 | 99%
3 | Cc1ccccc1S(=O)(=O)N1CC(O)CCC1C(=O)OCCc1cnccc1C(=O)OCc1ccncc1 (stereo not drawn) [Compound 4] | 13.3 nM | 1.06 | 91.4%
4 | Cc1ccc(C(=O)C(=O)N2CC(O)SCC2C(=O)OCc2cc(C(=O)OCc3cccc(Br)c3)ccn2)cc1 (stereo not drawn) [Compound 6] | 0.75 nM | 1.1 | 100%
5 | O=C(C(=O)N1CC(O)OCC1C(=O)OCCC1CCCCC1C(=O)OCc1ccc(Cl)cc1)c1ccccn1 (stereo not drawn) [Compound 7] | 0.85 nM | 0.9 | 102%
6 | Cc1ccccc1C(=O)C(=O)N1CC(O)OCC1C(=O)OCc1ccccc1C(=O)OCc1ccccc1Cl (stereo not drawn) [Compound 8] | 2.9 nM | 1.5 | 101%
7 | Cc1ccc(S(=O)(=O)N2CC(O)CCC2C(=O)OCc2ccc(C(=O)OCc3ccccc3Cl)cn2)cc1 (stereo not drawn) [Compound 9] | 19.4 nM | 0.8205 | 96.4%
8 | Cc1ccc(S(=O)(=O)N2CC(O)CCC2C(=O)OCCc2cccc(C(=O)OCc3ccccc3Cl)c2)cc1 (stereo not drawn) [Compound 10] | 1.5 nM | 0.8 | 98%
9 | O=C(C(=O)N1CC(O)CCC1C(=O)OCCC1CCCCC1C(=O)OCc1cccc(Br)c1)c1cc2ccccc2[nH]1 (stereo not drawn) [Compound 11] | 0.23 nM | 1 | 100%
10 | COc1ccc(COC(=O)c2ccc(CCOC(=O)C3C[Se]C(O)CN3C(=O)C(=O)c3ccncc3)nc2)cc1 (stereo not drawn) [Compound 12] | 0.41 nM | 1.1 | 101%
11 | O=C(C(=O)N1CC(O)CCC1C(=O)OCCc1ccccc1C(=O)OCCc1ccccc1)c1ccccn1 (stereo not drawn) [Compound 13] | 2.2 nM | 1.6 | 98%
12 | O=C(OCC1CCCCC1)c1ccnc(CCOC(=O)C2C[Se]C(O)CN2C(=O)C(=O)c2cccc3ccccc23)c1 (stereo not drawn) [Compound 14] | 132 nM | 0.8 | 100%
13 | O=C(OCC1CCCCC1)c1ccc(COC(=O)C2CCC(O)CN2C(=O)C(=O)c2cccc3ccccc23)nc1 (stereo not drawn) [Compound 15] | 5.99 nM | 0.8638 | 106%
14 | CC(COC(=O)c1cccc(COC(=O)C2COC(O)CN2C(=O)C(=O)C2=Cc3ccccc3C2)c1)c1ccccc1 (stereo not drawn) [Compound 16] | 3.9 nM | 1 | 99%
15 | COc1cccc(COC(=O)c2cccc(CCOC(=O)C3CCC(O)CN3C(=O)C(=O)C3=Cc4ccccc4C3)c2)c1 (stereo not drawn) [Compound 17] | 0.58 nM | 1.1 | 102%
16 | O=C(OCc1ccncc1)c1ccnc(CCOC(=O)C2CSC(O)CN2C(=O)C(=O)c2ccccn2)c1 (stereo not drawn) [Compound 18] | 0.92 nM | 1 | 102%
17 | O=C(C(=O)N1CC(O)SCC1C(=O)OCCC1CCCCC1C(=O)OCc1ccccn1)c1cc2ccccc2[nH]1 (stereo not drawn) [Compound 19] | 2.6 nM | 1.6 | 96%
18 | O=C(OCc1ccccc1Cl)c1ccnc(CCOC(=O)C2CCC(O)CN2C(=O)C(=O)c2ccccn2)c1 (stereo not drawn) [Compound 20] | 53.8 nM | 0.83 | 99.3%
